From ChEMBL document CHEMBL5291721, “A preclinical secondary pharmacology resource illuminates target-adverse drug reaction associations of marketed drugs” (Nat Commun, 2023)

Legend:
[1] = target: Prostaglandin G/H synthase 1 (Homo sapiens, UniProt P23219); format: functional
[2] = target: Mu-type opioid receptor (Homo sapiens, UniProt P35372)
[3] = target: Gamma-aminobutyric acid receptor subunit alpha-1 (Rattus norvegicus, UniProt P62813)
[4] = target: Cannabinoid receptor 1 (Homo sapiens, UniProt P21554); format: functional, cell-based
Cannabinoid receptor 1, sequence (P21554 whole entry): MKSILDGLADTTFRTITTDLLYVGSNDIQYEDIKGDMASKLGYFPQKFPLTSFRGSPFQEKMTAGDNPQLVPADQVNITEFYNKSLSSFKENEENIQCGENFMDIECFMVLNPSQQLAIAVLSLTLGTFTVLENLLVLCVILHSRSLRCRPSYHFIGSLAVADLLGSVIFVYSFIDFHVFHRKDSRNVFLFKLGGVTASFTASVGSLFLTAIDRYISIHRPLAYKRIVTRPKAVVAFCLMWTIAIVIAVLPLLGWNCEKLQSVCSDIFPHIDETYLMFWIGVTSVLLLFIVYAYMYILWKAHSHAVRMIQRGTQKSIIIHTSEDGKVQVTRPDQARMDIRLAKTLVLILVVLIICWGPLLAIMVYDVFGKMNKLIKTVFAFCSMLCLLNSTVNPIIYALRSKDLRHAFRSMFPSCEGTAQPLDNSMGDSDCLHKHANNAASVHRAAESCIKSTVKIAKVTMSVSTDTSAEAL

[5] = target: T1, Progesterone receptor (Homo sapiens, UniProt P06401); format: functional
T1 sequence (P06401 whole entry): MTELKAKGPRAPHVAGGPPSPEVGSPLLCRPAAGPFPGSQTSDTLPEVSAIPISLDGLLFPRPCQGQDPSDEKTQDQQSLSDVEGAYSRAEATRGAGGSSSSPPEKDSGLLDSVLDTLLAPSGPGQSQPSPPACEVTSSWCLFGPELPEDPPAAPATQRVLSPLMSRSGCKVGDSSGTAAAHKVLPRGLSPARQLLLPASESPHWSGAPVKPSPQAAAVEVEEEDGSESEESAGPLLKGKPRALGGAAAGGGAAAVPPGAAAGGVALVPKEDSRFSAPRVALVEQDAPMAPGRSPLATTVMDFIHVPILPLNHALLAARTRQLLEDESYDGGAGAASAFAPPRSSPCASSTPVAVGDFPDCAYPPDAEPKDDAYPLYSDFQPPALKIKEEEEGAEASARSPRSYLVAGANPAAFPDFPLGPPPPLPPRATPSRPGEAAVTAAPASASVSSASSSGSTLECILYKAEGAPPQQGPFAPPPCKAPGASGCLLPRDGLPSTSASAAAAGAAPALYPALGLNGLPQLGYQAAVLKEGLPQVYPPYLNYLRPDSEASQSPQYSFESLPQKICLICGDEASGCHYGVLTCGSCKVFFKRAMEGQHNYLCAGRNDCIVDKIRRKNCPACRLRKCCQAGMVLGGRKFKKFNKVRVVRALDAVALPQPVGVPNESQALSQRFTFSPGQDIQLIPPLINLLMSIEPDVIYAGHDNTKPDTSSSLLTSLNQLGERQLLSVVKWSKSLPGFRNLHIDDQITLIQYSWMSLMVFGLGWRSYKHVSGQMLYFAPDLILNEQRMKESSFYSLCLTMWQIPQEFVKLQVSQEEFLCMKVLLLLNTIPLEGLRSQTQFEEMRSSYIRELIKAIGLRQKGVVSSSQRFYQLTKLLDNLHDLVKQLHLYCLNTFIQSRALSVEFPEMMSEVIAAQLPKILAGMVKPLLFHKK

[6] = target: T2, Glucocorticoid receptor (Homo sapiens, UniProt P04150)
T2 sequence (P04150 whole entry): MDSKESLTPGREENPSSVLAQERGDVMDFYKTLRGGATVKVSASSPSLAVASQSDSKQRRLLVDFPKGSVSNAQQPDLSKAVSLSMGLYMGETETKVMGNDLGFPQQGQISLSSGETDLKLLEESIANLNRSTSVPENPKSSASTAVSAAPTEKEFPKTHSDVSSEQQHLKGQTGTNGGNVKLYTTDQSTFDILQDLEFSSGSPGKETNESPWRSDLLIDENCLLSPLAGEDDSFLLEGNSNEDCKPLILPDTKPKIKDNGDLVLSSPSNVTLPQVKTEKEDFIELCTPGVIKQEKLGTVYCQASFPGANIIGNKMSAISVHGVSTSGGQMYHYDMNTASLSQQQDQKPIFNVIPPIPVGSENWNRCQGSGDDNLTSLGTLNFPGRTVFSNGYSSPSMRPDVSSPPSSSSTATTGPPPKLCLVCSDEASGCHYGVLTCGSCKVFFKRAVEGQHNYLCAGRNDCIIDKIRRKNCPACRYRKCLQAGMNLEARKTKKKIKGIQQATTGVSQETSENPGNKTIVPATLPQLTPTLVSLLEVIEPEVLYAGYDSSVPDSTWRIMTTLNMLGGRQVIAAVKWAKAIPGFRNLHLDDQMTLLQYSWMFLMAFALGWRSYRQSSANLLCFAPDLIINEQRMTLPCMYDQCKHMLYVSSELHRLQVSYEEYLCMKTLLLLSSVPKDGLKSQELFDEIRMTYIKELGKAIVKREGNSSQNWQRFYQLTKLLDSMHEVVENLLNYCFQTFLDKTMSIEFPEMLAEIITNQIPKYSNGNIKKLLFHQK

[7] = target: T1, Progesterone receptor; format: functional; remark: listed apart in the source
[8] = target: Histamine H1 receptor (Homo sapiens, UniProt P35367)
Histamine H1 receptor, sequence (P35367 whole entry): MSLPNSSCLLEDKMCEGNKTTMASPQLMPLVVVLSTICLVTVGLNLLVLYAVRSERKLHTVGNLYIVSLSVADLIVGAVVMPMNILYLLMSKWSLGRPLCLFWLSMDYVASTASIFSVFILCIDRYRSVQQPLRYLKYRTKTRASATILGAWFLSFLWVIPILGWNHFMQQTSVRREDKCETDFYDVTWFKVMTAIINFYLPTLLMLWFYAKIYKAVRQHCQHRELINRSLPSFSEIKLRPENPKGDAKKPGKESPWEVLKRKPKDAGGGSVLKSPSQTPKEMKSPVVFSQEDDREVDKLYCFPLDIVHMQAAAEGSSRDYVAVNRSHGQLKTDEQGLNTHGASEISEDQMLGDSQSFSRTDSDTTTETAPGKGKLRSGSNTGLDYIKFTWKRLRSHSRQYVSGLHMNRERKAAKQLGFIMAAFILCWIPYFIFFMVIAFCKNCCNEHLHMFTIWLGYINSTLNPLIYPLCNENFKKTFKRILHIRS

[9] = target: Muscarinic acetylcholine receptor M3 (Homo sapiens, UniProt P20309)
Muscarinic acetylcholine receptor M3, sequence (P20309 whole entry): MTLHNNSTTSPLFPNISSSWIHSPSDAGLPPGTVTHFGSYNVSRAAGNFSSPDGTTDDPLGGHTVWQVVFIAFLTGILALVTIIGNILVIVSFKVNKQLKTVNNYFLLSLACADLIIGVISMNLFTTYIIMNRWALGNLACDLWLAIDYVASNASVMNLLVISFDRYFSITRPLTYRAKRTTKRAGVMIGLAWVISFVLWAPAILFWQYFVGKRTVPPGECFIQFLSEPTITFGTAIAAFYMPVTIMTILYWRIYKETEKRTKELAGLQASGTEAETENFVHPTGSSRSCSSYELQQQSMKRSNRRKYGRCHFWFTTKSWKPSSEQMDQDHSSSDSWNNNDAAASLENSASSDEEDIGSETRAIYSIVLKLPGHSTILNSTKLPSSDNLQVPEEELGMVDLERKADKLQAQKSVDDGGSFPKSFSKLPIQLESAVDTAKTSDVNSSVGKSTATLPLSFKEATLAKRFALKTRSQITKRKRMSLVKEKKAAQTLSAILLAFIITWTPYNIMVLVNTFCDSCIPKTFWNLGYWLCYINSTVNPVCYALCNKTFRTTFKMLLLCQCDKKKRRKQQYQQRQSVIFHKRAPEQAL
Also: assay procedure not described here.

Prostaglandin G/H synthase 1, sequence (P23219 whole entry): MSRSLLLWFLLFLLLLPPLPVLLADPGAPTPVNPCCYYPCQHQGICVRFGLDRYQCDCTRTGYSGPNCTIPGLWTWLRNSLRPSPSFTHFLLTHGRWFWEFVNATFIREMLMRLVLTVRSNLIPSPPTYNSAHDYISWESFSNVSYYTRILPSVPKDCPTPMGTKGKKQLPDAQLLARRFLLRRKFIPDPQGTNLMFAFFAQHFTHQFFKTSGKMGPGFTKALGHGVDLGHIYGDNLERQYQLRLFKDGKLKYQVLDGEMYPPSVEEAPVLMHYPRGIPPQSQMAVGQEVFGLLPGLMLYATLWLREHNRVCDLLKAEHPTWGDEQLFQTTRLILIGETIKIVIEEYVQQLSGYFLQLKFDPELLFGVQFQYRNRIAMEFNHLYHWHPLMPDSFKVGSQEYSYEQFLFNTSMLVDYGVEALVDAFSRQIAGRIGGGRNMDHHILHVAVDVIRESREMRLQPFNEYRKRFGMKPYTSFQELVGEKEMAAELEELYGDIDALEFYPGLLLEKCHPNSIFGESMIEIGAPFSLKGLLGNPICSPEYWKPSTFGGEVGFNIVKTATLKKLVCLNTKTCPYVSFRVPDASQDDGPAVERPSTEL
Mu-type opioid receptor, sequence (P35372 whole entry): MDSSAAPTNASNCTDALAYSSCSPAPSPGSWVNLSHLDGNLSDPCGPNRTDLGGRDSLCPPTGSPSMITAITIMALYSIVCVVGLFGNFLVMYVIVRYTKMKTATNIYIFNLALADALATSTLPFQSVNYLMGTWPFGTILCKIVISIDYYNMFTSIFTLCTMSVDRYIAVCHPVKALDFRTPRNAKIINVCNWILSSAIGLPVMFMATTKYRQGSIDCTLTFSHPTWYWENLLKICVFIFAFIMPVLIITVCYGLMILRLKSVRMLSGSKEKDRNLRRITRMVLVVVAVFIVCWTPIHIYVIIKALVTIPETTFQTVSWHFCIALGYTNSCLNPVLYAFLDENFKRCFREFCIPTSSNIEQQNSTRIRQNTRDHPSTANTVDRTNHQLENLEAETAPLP
Gamma-aminobutyric acid receptor subunit alpha-1, sequence (P62813 whole entry): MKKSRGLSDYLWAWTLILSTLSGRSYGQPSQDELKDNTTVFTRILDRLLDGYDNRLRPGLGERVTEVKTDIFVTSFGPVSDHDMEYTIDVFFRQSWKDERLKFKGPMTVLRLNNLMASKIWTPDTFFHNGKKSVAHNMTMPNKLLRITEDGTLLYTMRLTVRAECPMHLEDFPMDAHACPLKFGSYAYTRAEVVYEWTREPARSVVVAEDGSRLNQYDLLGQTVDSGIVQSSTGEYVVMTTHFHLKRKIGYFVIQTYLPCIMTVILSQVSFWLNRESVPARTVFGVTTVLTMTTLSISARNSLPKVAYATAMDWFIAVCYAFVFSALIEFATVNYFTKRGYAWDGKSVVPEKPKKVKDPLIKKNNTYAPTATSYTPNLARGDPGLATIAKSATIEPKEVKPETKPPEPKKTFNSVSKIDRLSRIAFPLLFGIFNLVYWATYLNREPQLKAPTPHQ

| Compound | AC50 [1] [µM] | AC50 [2] [µM] | AC50 [3] [µM] | also measured |
| --- | --- | --- | --- | --- |
| O=C1c2c(O)c(=O)ccn2N([C@@H]2c3ccccc3SCc3c2ccc(F)c3F)[C@@H]2COCCN12 [BALOXAVIR] | > 30 | 22 |  |  |
| C(=N\NC1=NCCN1)/c1c2ccccc2c(/C=N/NC2=NCCN2)c2ccccc12 [BISANTRENE] | > 30 | 5.36 |  |  |
| CCO/N=C(\C(=O)N[C@@H]1C(=O)N2C(C(=O)[O-])=C(Sc3nc(-c4cc[n+](C)cc4)cs3)CS[C@H]12)c1nsc(N)n1 [CEFTAROLINE] | > 30 | > 30 |  |  |
| Cc1cc(O)cc(C)c1Cl [CHLOROXYLENOL] | > 3 | > 30 |  |  |
| CN(C)CCCN1c2ccccc2CCc2ccc(Cl)cc21 [CLOMIPRAMINE] |  | 1.9 | > 10 |  |
| CC(=O)OCC(=O)[C@@]1(O)CC[C@H]2[C@@H]3CCC4=CC(=O)CC[C@]4(C)[C@H]3C(=O)C[C@@]21C [CORTISONE ACETATE] |  |  | > 30 | AC50 [4]: > 30 µM |
| C[N+](C)(C)CCCCCCCCCC[N+](C)(C)C [DECAMETHONIUM] | > 30 | > 30 |  |  |
| O=C(O)c1cc(-c2ccc(F)cc2F)ccc1O [DIFLUNISAL] |  |  | > 10 | AC50 [5]: > 10 µM; AC50 [6]: > 10 µM; AC50 [7]: > 10 µM |
| O=C1c2ccccc2C(=O)C1C(=O)C(c1ccccc1)c1ccccc1 [DIPHENADIONE] | 15.6 | > 30 |  |  |
| CCC(=O)O[C@H]1[C@H](O[C@@H]2[C@@H](C)[C@H](O[C@H]3C[C@@](C)(OC)[C@@H](O)[C@H](C)O3)[C@@H](C)C(=O)O[C@H](CC)[C@@](C)(O)[C@H](O)[C@@H](C)C(=O)[C@H](C)C[C@@]2(C)O)O[C@H](C)C[C@@H]1N(C)C [ERYTHROMYCIN PROPIONATE] | > 30 | 16.2 |  |  |
| CCOC(=O)c1ccc(O)cc1 [ETHYLPARABEN] | > 1 | > 30 |  |  |
| O=C1[C@H](CC[C@H](O)c2ccc(F)cc2)[C@@H](c2ccc(O)cc2)N1c1ccc(F)cc1 [EZETIMIBE] | > 30 | 13.9 |  |  |
| O=C(COc1ccc(Cl)cc1)N1CCN(Cc2ccc3c(c2)OCO3)CC1 [FIPEXIDE] | > 30 | 18.4 |  |  |
| Cc1c(-c2ccccc2)oc2c(C(=O)OCCN3CCCCC3)cccc2c1=O [FLAVOXATE] | > 30 | 3.05 |  |  |
| CCC(=O)c1c(O)cc(O)cc1O [FLOPROPIONE] | 22.3 | > 30 |  |  |
| CC1(C)O[C@@H]2C[C@H]3[C@@H]4C[C@H](F)C5=CC(=O)CC[C@]5(C)[C@H]4[C@@H](O)C[C@]3(C)[C@]2(C(=O)CO)O1 [FLURANDRENOLIDE] | > 30 | > 30 |  |  |
| CC(C)C(=O)Nc1ccc([N+](=O)[O-])c(C(F)(F)F)c1 [FLUTAMIDE] | > 30 | > 30 | > 10 | AC50 [5]: > 10 µM; AC50 [7]: > 10 µM |
| CC(C)NNC(=O)c1ccncc1 [IPRONIAZID] |  |  |  | AC50 [5]: > 30 µM; AC50 [4]: > 30 µM; AC50 [7]: > 30 µM |
| NC[C@H]1O[C@H](O[C@H]2[C@H](O)[C@@H](O[C@H]3O[C@H](CO)[C@@H](O)[C@H](N)[C@H]3O)[C@H](N)C[C@@H]2N)[C@H](O)[C@@H](O)[C@@H]1O [KANAMYCIN] |  |  | > 10 | AC50 [5]: > 10 µM; AC50 [6]: > 10 µM; AC50 [7]: > 10 µM |
| C#C[C@]1(O)CC[C@H]2[C@@H]3CCC4=CC(=O)CC[C@@H]4[C@H]3CC[C@@]21CC [LEVONORGESTREL] | > 30 | > 30 |  |  |
| OC[C@@H](O)[C@@H](O)[C@H](O)[C@H](O)CO [MANNITOL] | > 30 | > 30 |  |  |
| CN1CCCC(CN2c3ccccc3Sc3ccccc32)C1 (stereo not drawn) [MEPAZINE] | 21.6 | 6.07 |  |  |

| Compound | AC50 [1] [µM] | AC50 [2] [µM] | AC50 [3] [µM] | also measured |
| --- | --- | --- | --- | --- |
| Sc1ncnc2nc[nH]c12 [MERCAPTOPURINE ANHYDROUS] | > 30 | > 30 |  |  |
| C[N+]1(C)[C@@H]2C[C@@H](OC(=O)[C@H](CO)c3ccccc3)C[C@H]1[C@@H]1O[C@@H]12 [METHSCOPOLAMINE] | > 30 | > 30 |  |  |
| C[C@H]1C[C@@H]2[C@H]([C@@H](O)C[C@@]3(C)[C@H]2CC[C@]3(O)C(=O)CO)[C@@]2(C)C=CC(=O)C=C12 [METHYLPREDNISOLONE] |  |  | > 10 | AC50 [7]: 1.3 µM |
| CC(=O)Oc1c(C)cc(OCC(O)CNC(C)C)c(C)c1C (stereo not drawn) [METIPRANOLOL] | > 30 | > 30 |  |  |
| CCN(CC)CCNC(=O)c1cc(Cl)c(N)cc1OC [METOCLOPRAMIDE] |  |  | > 10 | AC50 [4]: > 30 µM |
| CC(C)(C(=O)c1cccnc1)c1cccnc1 [METYRAPONE] |  |  | > 10 | AC50 [5]: > 10 µM; AC50 [6]: > 10 µM; AC50 [7]: > 10 µM |
| Cc1cccc(C)c1OCC(C)N (stereo not drawn) [MEXILETINE] |  |  |  | AC50 [5]: > 30 µM; AC50 [4]: > 30 µM; AC50 [7]: > 30 µM |
| O=C1CC[C@@]2(O)[C@H]3Cc4ccc(O)c5c4[C@@]2(CCN3CC2CC2)[C@H]1O5 [NALTREXONE] | > 30 |  |  |  |
| CCc1nn(CCCN2CCN(c3cccc(Cl)c3)CC2)c(=O)n1CCOc1ccccc1 [NEFAZODONE] |  |  | > 10 | AC50 [4]: > 30 µM; AC50 [8]: 0.41 µM; AC50 [9]: > 10 µM |
| COC(=O)C1=C(C)NC(C)=C(C(=O)OCC(C)C)C1c1ccccc1[N+](=O)[O-] (stereo not drawn) [NISOLDIPINE] |  |  | > 10 | AC50 [5]: 4.9 µM; AC50 [4]: > 30 µM; AC50 [6]: 8.8 µM; AC50 [7]: > 30 µM |
| NC1=NC(=O)C(c2ccccc2)O1 (stereo not drawn) [PEMOLINE] |  |  | > 10 | AC50 [6]: > 30 µM |
| CC(N/C(=N\C#N)Nc1ccncc1)C(C)(C)C (stereo not drawn) [PINACIDIL ANHYDROUS] | > 30 | > 30 |  |  |
| CCc1ccc(CCOc2ccc(CC3SC(=O)NC3=O)cc2)nc1 (stereo not drawn) [PIOGLITAZONE] | > 30 | > 30 | > 10 | AC50 [6]: > 30 µM |
| CC[C@H](C)C(=O)O[C@H]1C[C@H](O)C=C2C=C[C@H](C)[C@H](CC[C@@H](O)C[C@@H](O)CC(=O)O)[C@H]21 [PRAVASTATIN] |  |  | > 10 | AC50 [5]: > 30 µM; AC50 [4]: > 30 µM; AC50 [7]: > 30 µM |
| CC(O)CO (stereo not drawn) [PROPYLENE GLYCOL] | > 30 | > 30 |  |  |
| CN(C)C(=O)Oc1ccc[n+](C)c1 [PYRIDOSTIGMINE] | > 30 | > 30 |  |  |
| Cc1cc2c(cc1CC(=O)c1sccc1S(=O)(=O)Nc1onc(C)c1Cl)OCO2 [SITAXENTAN] | > 30 | > 30 |  |  |
| CC(C)OC(=O)[C@H](C)N[P@](=O)(OC[C@H]1O[C@@H](n2ccc(=O)[nH]c2=O)[C@](C)(F)[C@@H]1O)Oc1ccccc1 [SOFOSBUVIR] | > 30 | > 30 |  |  |
| Cc1ccc(O)c2ncccc12 [TILIQUINOL] | > 30 | > 30 |  |  |
| NC[C@H]1CC[C@H](C(=O)O)CC1 [TRANEXAMIC ACID] |  |  | > 10 | AC50 [5]: > 10 µM; AC50 [7]: > 10 µM |
| CC(=O)OC[C@H]1O[C@@H](n2ccc(=O)[nH]c2=O)[C@H](OC(C)=O)[C@@H]1OC(C)=O [URIDINE TRIACETATE] | > 30 | > 30 |  |  |
| CCOC(=O)N[C@@H]1CC[C@@H]2[C@@H](C1)C[C@H]1C(=O)O[C@H](C)[C@H]1[C@H]2/C=C/c1ccc(-c2cccc(F)c2)cn1 [VORAPAXAR] | > 30 | 0.82 |  |  |
